Patent publication US11413261B2, “Pharmaceutical composition for treating cancer comprising lactate metal salt” (METIMEDI PHARMACEUTICALS CO., LTD, priority 2014, dated 2022)

Experiments:
cancer cell = assay: Dissociation of metal lactate salts to lactate in a cancer cell; type: cell-based
[1] = system: human colorectal cancer cell lines (HCT-116 and HT-29); assay: Calcium level in cancer cells (Fluo-3/AM, confocal microscope); type: cell-based; details: 2.5 mM, 24 hours, vs untreated
Method: Each of human colorectal cancer cell lines (HCT-116 and HT-29) with the cell number of 5×10^5 cells cultured in a cancer cell culture medium (RPMI1640 medium including 10% FBS and 1% penicillin/streptomycin) at 37° C. with 5% CO2 was treated with 2.5 mM calcium lactate and then cultured for 24 hours. The cultured cancer cells were treated with 10 μM Fluo-3/AM calcium indicator and 25% Pluronic F-127, reacted at 37° C. for 30 minutes, applied with fluorescence probes, and then photographed with a confocal microscope (FIG. 2). In this case, cancer cells untreated with calcium lactate were used as control groups.

[2] = system: human colorectal cancer cell lines (HCT-116 and HT-29); assay: Lactate level in cancer cells (lactate assay kit); type: cell-based; details: 2.5 mM, medium with 3 mM or 11 mM glucose, vs untreated
Method: The cells cultured in Example 2-1 were cultured again in a medium including 3 mM (low) or 11 mM (normal) glucose. The cultured cells were disrupted by ultrasonication. The concentration of lactate included in the disrupted cells was measured using a lactate assay kit (AbCam, Cambridge, Mass.) (FIG. 3). In this case, cancer cells untreated with calcium lactate were used as control groups.

[3] = system: HIF-1α (hypoxia inducible factor 1α); assay: HIF-1α protein expression (Western blot); type: cell-based, human; details: HCT-116 and HT-29, hypoxia condition
Method: Human colorectal cancer cell lines (HCT-116 and HT-29) were cultured for 24 hours, under normoxia or hypoxia condition either treated or not treated with 2.5 mM calcium lactate. Then, a Western blot using an anti-HIF-1α antibody was conducted to each of the cultured cancer cell lines (upper part of FIG. 15).
Then, the human colorectal cancer cell lines (HCT-116 and HT-29) were treated with various concentrations (0.5 mM, 1.5 mM and 2.5 mM) of the calcium lactate under hypoxia condition and cultured and change in expression levels of HIF-1α in a nucleus of a cancer cell was measured (lower part of FIG. 15).

[4] = system: melanoma cell lines (SKMEL-02 and SKMEL-28); assay: Cell migration of melanoma cell lines; type: cell-based; details: 2.5 mM, 24 hours after insert removal, vs untreated
Method: A colorectal cancer cell line HCT-116 with the cell number of 4×10^5 cells was inoculated into a culture container at the center of which an ibidi culture insert having a thickness of 500 μm was placed, and treated with 2.5 mM calcium lactate and then cultured for 24 hours. Then, the insert was removed and further cultured for 12 hours to analyze migration of the cancer cells to a site where the insert was removed using a JuLi Br, Live cell analyzer (NanoEnTek Inc., South Korea) (FIG. 18). In this case, a colorectal cancer cell line cultured without treating with calcium lactate was used as a control group.
Using the same method as Example 8-1, with melanoma cell lines (SKMEL-02 and SKMEL-28) instead of the colorectal cancer cell line and further cultured for 24 hours after removal of the insert was performed, the effect of calcium lactate on migration of the melanoma cell lines was examined (FIG. 20).

MCF-7 cell line = assay: Cell apoptosis rate by flow cytometry (FITC Annexin V / PI); type: cell-based; details: 2.5 mM, 24 hours (untreated 9.63%)
Method: (§1) Breast cancer cell lines (MCF-7 and MDA-MB231) were cultured for 24 hours with or without treating with 2.5 mM calcium lactate. Each of the breast cancer cell lines were treated with 5 μl of FITC Annexin V and 5 μl of PI and reacted at room temperature for 15 minutes and then, a flow cytometry analysis was conducted thereto using a FACS Calibur (BD Bioscience, USA) to evaluate staining thereof and thus measure a cancer cell apoptosis rate (FIG. 21a-21f).

MDA-MB231 cell line = assay: as above; type: cell-based; details: 2.5 mM, 24 hours (untreated 10.17%)
Method: as §1

PARP = PARP expression in tumor tissue of xenograft animal model; type: in vivo, Balb/c mice; details: HT-29 tumor tissue; 2.5 mM P.O. or 2.5 mM I.T.; vs control group
Method: (§2) A colorectal cancer cell (HT-29) cultured in an RPMI1640 medium and then diluted with PBS was subcutaneously implanted into the flank of Balb/c mice. The mice were bred until the colorectal cancer cell grew to about 5 mm. Then, four groups were set up; a control group untreated with calcium lactate for 30 days, an experimental group 1 (peroral, P.O.) administered with 2.5 mM calcium lactate by oral administration, an experimental group 2 (intra tumor, I.T) injected with 2.5 mM calcium lactate around tumor, and an experimental group 3 (subcutaneous, S.C) subcutaneously injected with 25 mM calcium lactate (FIG. 27).
Colorectal cancer tissues were extracted from the mice of the control group, the experimental group 1, or the experimental group 2 set up in Example 10-1, and expression levels of PARP and truncated PARP contributing to stabilization of cancer cells expressed therein were compared (FIG. 28).

VEGF = VEGF expression in tumor tissues of animal model; type: in vivo, Balb/c mice; details: HT-29 tumor tissue
Method: as §2
Colorectal cancer tissues were extracted from the mice of the control group or the experimental group 1 set up in Example 10-1, and expression levels of HIF-1α and VEGF involved in metastasis, invasion, and angiogenesis of tumor expressed therein were compared (FIG. 29). In this case, GAPDH was used as internal control groups.
Colorectal cancer tissues were extracted from the mice of the control group or the experimental group 2 set up in Example 10-1, and expression levels of HIF-1α and VEGF involved in metastasis, invasion, and angiogenesis of tumor therein were compared (FIG. 31). In this case, GAPDH was used as internal control groups.

[5] = system: human liver cancer cell line (Hep3B); assay: Colony-forming ability, anticancer drug in combination with calcium lactate (6-well plates); type: cell-based; details: 2.5 mM calcium lactate alone, vs control
Method: Human liver cancer cell line (Hep3B) with the cell number of 1×10^3 cells were seeded into an RPMI1640 medium in each of 6-well plates. After one day, the medium was replaced with fresh medium and the cells were treated with 2.5 mM calcium lactate or 1 μM, 2.5 μM, and 5 μM Sorafenib alone or treated with various concentrations (1 μM, 2.5 μM, and 5 μM) of Sorafenib in combination with 2.5 mM calcium lactate. Then, the colony-forming abilities of the cells were compared. In this case, a human liver cancer cell line (Hep3B) untreated with any drug was used as a control group (FIGS. 45a and 45b).

[6] = system: human colorectal cancer cell line HCT-116; details: 5 mM calcium lactate individually, 10 days

CC(O)C(=O)[O-].CC(O)C(=O)[O-].[Ca+2] (stereo not shown) [calcium lactate]
dissociation to lactate in a cancer cell (cancer cell): can be dissociated to lactate
concentration of calcium in cancer cells [1]: increased
concentration of lactate in cancer cells [2]: increased
protein expression levels of HIF-1α ([3]; 2.5 mM, 24 hours): not expressed
expression levels of HIF-1α in a nucleus of a cancer cell ([3]; 0.5, 1.5, 2.5 mM): suppresses the expression levels of HIF-1α concentration dependently
cell migration (metastatic capacity) [4]: relatively low levels of metastasis
cell apoptosis rate (MCF-7 cell line): 33.8%
cell apoptosis rate (MDA-MB231 cell line): 13.05%
PARP degrading activity (PARP): increased
expression of VEGF (VEGF; experimental group 1, 2.5 mM oral administration): inhibited
expression of VEGF (VEGF; experimental group 2, 2.5 mM injected around tumor): inhibited
colony-forming ability [5]: suppressed
survival rate [6]: about 60%
